Entries after “also recorded” stand apart in the source; their conditions may differ.
What was measured:
[1] = test system: human colorectal-cancer cells SW-480; experiment: MTT ex vivo survival assay, SW-480; type: cell-based; conditions: SW-480 cell line; for half-maximal inhibitory concentration (IC50): isolated agents, stated in words only
Description: (§1) The Antroquinonol B (AnQB) and Zhankuic acid D (ZhAD) separately isolated from the Extraction A of Example 1 were added into the culture media of human colorectal-cancer cells, HT-29 or SW-480, to test for tumor cell survival by using anti-cancer drug screen model. This survival assay was carried out with the widely known MTT (3-[4,5-dimethylthiazol-2-yl]2,5-diphenyltetrazolium bromide) assay.
(§2) HT-29 cell line (purchased from ATCC) is a human colorectal adenocarcinoma cell line with epithelial morphology. These cells are sensitive to the chemotherapeutic drugs 5-fluorouracil and oxaliplatin, which are standard treatment options for colorectal cancer. In addition to being a xenograft tumor model for colorectal cancer, the HT-29 cell line is also used as an in-vitro model to study survival assay. And the other one, SW-480 is Dukes' type B, colorectal adenocarcinoma which is a difficult tumor with a low survival rate.
(§3) The human colorectal-cancer cells, HT-29 and SW-480 were cultivated in media containing fetal calf serum for 18 hours. The proliferated cells were washed once with PBS, then treated with 1× trypsin-EDTA and centrifuged at 1200 rpm for 45 minutes. The supernatant was discarded and the cell pellet was re-suspended in […] of fresh culture medium by gently shaking. The cells were placed in a 96-well plate.
(§4) Subsequently, the plates were read on an ELISA reader to determine the survival rates. The half maximal inhibitory concentration (IC50) values were calculated and results of ex vivo survival assay were thus obtained.
(§5) By using the same manner as the method described above, respectively human colorectal cancer cell line HT-29 and Sw-480 was cultured. After then, the pharmaceutical compositions A˜F of the present invention was applied separately, and then MTT assay for each sample was measured to assess the inhibition effectiveness of various cancer cell activity while using pharmaceutical compositions A˜F of the present invention.

[2] = test system: human colorectal-cancer cells HT-29; experiment: MTT ex vivo survival assay, HT-29; type: cell-based; conditions: HT-29 cell line; for half-maximal inhibitory concentration (IC50): isolated agents, stated in words only
Description: as §1, §2, §3, §4, §5

SMILES | tumor cell survival rate / growth inhibition (MTT assay) [1] | half-maximal inhibitory concentration (IC50) [1] | tumor cell survival rate / growth inhibition (MTT assay) [2] | half-maximal inhibitory concentration (IC50) [2]
C=C(CC[C@@H](C(=O)O)[C@H]1CC[C@@]2(C)C3=CC[C@H]4C(C)(C)[C@@H](O)CC[C@]4(C)C3=CC[C@]12C)C(C)C | can inhibit the growth of colorectal cancer cell; also recorded: can decrease the survival rates | relatively low | can inhibit the growth of colorectal cancer cell; also recorded: can decrease the survival rates | relatively low
COC1=C(OC)[C@H](O)[C@H](C/C=C(\C)CC/C=C(/C)C/C=C/C(C)(C)O)[C@@H](C)C1=O [Antroquinonol B] | can inhibit the growth of colorectal cancer cell; also recorded: can decrease the survival rates | relatively low | can inhibit the growth of colorectal cancer cell; also recorded: can decrease the survival rates | relatively low

— patent US20170189417A1, “PHARMACEUTICAL COMPOSITION FOR TREATING COLORECTAL CANCER” (MA SHEN KAI RUEI CO., LTD., priority 2015, published 2017)
